Here are results for 1 molecule from patent publication US9249128B2 (priority 2010, dated 2016).

pIC50: −log10 of the molar value. Read-outs that look alike come from different tables or passages of the source.

Assay [1] relates to serine hydrolase activities detected in PC3 cells. The assay can be described thus: Competitive ABPP-MudPIT of PC3 cells treated in situ. It is filed as cell-based, human. The conditions noted are these: 1 uM in situ treatment, 4 hr; >30 serine hydrolase activities detected in PC3 cells. The protocol: (§1) Inhibitors were dissolved in DMSO and diluted into media or buffer prior to cell or proteome treatment, respectively. For in vitro treatment, final DMSO concentration was 4%. For in situ treatments of cells for ABPP, lipid measurements, migration, cell-survival, and invasion assays, 2×10^6 cells were seeded in 6 cm dishes (˜100% confluency) 24 h prior to inhibitor pre-treatment (in DMSO at 0.1% final concentration) in serum-free media (3 mL) for the designated time before harvesting cells for ABPP or lipid measurements or before the initiation of migration, cell-survival, and invasion assays.
Competitive ABPP-MudPIT experiments were performed as previously described (Nomura et al., 2010). Briefly, 1 mg of proteome was labeled with 5 μM FP-biotin, followed by solubilization with 1% Triton X-100, denaturation by SDS and heating, avidin precipitation of labeled proteins, and on-bead tryptic digest. Tryptic peptides were then loaded on to a biphasic (strong cation exchange/reverse phase) capillary column and analyzed by two-dimensional liquid chromatography (2D-LC) separation in combination with tandem mass spectrometry using an Agilent 1100 LC system coupled with a ThermoFisher LTQ linear ion trap mass spectrometer. Spectral counts are reported as the average of three samples with the standard error of the mean (SEM).

In the next assay the test system is LNCaP cells. The assay can be described thus: Cell survival assay in LNCaP cells. It is filed as cell-based, human. The conditions noted are these: 1 μM, 48 h in situ treatment; cells express low levels of KIAA1363. As to the method: as §1
Cell migration, cell survival, and invasion studies were performed as previously described (Nomura et al., 2010). Briefly, migration assays were performed in Transwell chambers (Corning) with 8 μm pore-sized membranes coated with 10 μg/mL collagen at 37° C. for LNCaP (24 h), PC3 (4 h) and DU145 cells (24 h), respectively. Cell survival assays were performed using the Cell Proliferation Reagent WST-1 (Roche) Invasion assays were conducted using the BD Matrigel Invasion Chambers per the manufacturer's protocol. Inhibitors were preincubated for the stated duration before seeding cells into migration, cell-survival, or invasion chambers. Prior to seeding the cells in these chambers, cells were serum-starved for 4 h. Inhibitors were also present during the migration, cell-survival, and invasion assays.

The target in the next assay is T1, KIAA1363 (Homo sapiens, UniProt Q6PIU2).
T1 sequence (Q6PIU2 1-408): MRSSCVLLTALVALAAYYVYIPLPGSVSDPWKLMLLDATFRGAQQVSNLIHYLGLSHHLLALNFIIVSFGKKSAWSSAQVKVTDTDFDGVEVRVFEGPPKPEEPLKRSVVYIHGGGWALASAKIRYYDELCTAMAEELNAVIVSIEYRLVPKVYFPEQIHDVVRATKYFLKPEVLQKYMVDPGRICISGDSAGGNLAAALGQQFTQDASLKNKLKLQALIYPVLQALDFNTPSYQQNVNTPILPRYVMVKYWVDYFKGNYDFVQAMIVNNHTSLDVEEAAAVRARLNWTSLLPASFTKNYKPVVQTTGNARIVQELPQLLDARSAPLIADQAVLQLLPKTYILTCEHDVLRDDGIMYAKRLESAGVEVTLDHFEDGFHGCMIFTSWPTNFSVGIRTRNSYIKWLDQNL
The assay is described as follows: Gel-based competitive ABPP of living PC3 cells, in situ treatment. The class given is cell-based. Further details: PC3 cancer cells, which have high endogenous KIAA1363 levels; endogenous in cells; host or cells: PC3. The note with it: for pIC50: in situ treatment. As to the method:
as §1
For ABPP experiments, cell lysate and tissue proteomes were treated with 1 μM FP-rhodamine for 30 min at room temperature (50 μL total reaction volume) as described previously (Nomura et al., 2010). Reactions were quenched with one volume of standard 4×SDS/PAGE loading buffer (reducing), separated by SDS/PAGE (10% acrylamide), and visualized in-gel with a Hitachi FMBio IIe flatbed fluorescence scanner (MiraiBio). Inhibitors were preincubated prior (30 min or 4 h at 37° C. in vitro or in situ, respectively) to the addition of FP-rhodamine.
JW576 was dissolved in DMSO and diluted into media or buffer prior to cell or proteome treatment, respectively. For in vitro treatment, final DMSO concentration was 4%. For in situ treatments of cells for ABPP, 2×10^6 cells were seeded in 6 cm dishes (100% confluency) 24 hr prior to JW576 pretreatment with or without JW480 (in DMSO at 0.1% final concentration) in serum-free media (3 ml) for the designated time before harvesting cells for ABPP.
For ABPP experiments, cell lysate and tissue proteomes were treated with 1 μM FP-rhodamine for 30 min at room temperature ([…]). Reactions were quenched with one volume of standard 4×SDS/PAGE loading buffer (reducing), separated by SDS/PAGE (10% acrylamide), and visualized in-gel with a Hitachi FMBio IIe flatbed fluorescence scanner (MiraiBio). For experiments involving a preincubation with JW576 in the presence or absence of the non-fluorescent competitor JW480, the reactions were prepared without FP-rhodamine. JW576 were added at the indicated concentration and incubated for the indicated time at 37° C. FP-rhodamine was then added and the reaction was carried out exactly as described above.

`CC(C)c1ccccc1OC(=O)NCCc1ccc2ccccc2c1` [JW480, 2-isopropylphenyl (2-(naphthalen-2-yl)ethyl)carbamate]: the “Off-target activity across serine hydrolases (ABPP-MudPIT)” value in assay [1] is “no off-target activity”. Also, the “Survival of LNCaP cells” value with LNCaP cells is listed as “does not affect”. In addition, the “Duration of in situ inhibition of KIAA1363” value at KIAA1363 (JW480 1 μM, PC3 cells) is recorded as “at least 48 hr”. For the same molecule, the pIC50 at KIAA1363 (PC3 cells, read-out: IC50 for KIAA1363, in situ (FIG. 3B)) is 8.22; at KIAA1363 (presence or absence of 10% fetal calf serum, read-out: IC50 for KIAA1363 in living PC3 cells), 7.92 to 8.22.
